Legend:
Assay in all cases: Bliss excess, mean over the matrix (fraction); higher = more synergy
[1] = test system: NCI-H1092 (Small Cell Lung Carcinoma)
Procedure, shortened: (§1)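 Cell lines in DMEM/F12 or RPMI with 10% FBS were plated in 1536-well plates, held 24 hours at 37°C, 5% CO2, then given two-drug dose matrices for 72 hours (DMSO typically 0.2%). Viability was read by CellTiter-Glo 2.0 luminescence and scaled as inhibition from 0 (vehicle wells) to 1 (blank wells). Combination Emax is the second-highest inhibition in the matrix; Bliss excess is observed combination effect minus expected EA + EB − EA·EB, EA and EB being single-agent effects.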

EW-1 (Ewing's Sarcoma) = test system: EW-1 (Ewing's Sarcoma)
Procedure, shortened: as §1

[2] = test system: HCC1937 (Breast Carcinoma)
Procedure, shortened: as §1

COLO-679 (Melanoma) = test system: COLO-679 (Melanoma)
Procedure, shortened: as §1

[3] = test system: MDA-MB-453 (Breast Carcinoma)
Procedure, shortened: as §1

SK-N-AS (Neuroblastoma) = test system: SK-N-AS (Neuroblastoma)
Procedure, shortened: as §1

[4] = test system: HAL-01 (B-Lymphoblastic Leukemia)
Procedure, shortened: as §1

[5] = test system: LC-1-sq (Squamous Cell Lung Carcinoma)
Procedure, shortened: as §1

[6] = test system: EFO-21 (Ovarian Carcinoma)
Procedure, shortened: as §1

[7] = test system: DU-145 (Prostate Carcinoma)
Procedure, shortened: as §1

[8] = test system: MOG-G-UVW (Low Grade Glioma)
Procedure, shortened: as §1

[9] = test system: SNU-387 (Hepatocellular Carcinoma)
Procedure, shortened: as §1

[10] = test system: SW982 (Other Solid Carcinomas)
Procedure, shortened: as §1

[11] = test system: OE33 (Esophageal Adenocarcinoma)
Procedure, shortened: as §1

[12] = test system: ME-180 (Cervical Carcinoma)
Procedure, shortened: as §1

[13] = test system: KGN (Other Solid Carcinomas)
Procedure, shortened: as §1

[14] = test system: Ca-Ski (Cervical Carcinoma)
Procedure, shortened: as §1

[15] = test system: KOPN-8 (B-Lymphoblastic Leukemia)
Procedure, shortened: as §1

[16] = test system: EJM (Plasma Cell Myeloma)
Procedure, shortened: as §1

| SMILES | Bliss excess [1] | Bliss excess (EW-1 (Ewing's Sarcoma)) | Bliss excess [2] | Bliss excess (COLO-679 (Melanoma)) | Bliss excess [3] | Bliss excess (SK-N-AS (Neuroblastoma)) | Bliss excess [4] | Bliss excess [5] | Bliss excess [6] | Bliss excess [7] | Bliss excess [8] | Bliss excess [9] | Bliss excess [10] | Bliss excess [11] | Bliss excess [12] | Bliss excess [13] | Bliss excess [14] | Bliss excess [15] | Bliss excess [16] |
| --- | --- | --- | --- | --- | --- | --- | --- | --- | --- | --- | --- | --- | --- | --- | --- | --- | --- | --- | --- |
| COc1cccc(OCCCN)c1-c1cc(Nc2cnc(C#N)cn2)n[nH]1 [Prexasertib] + CCc1c2c(nc3ccc(O)cc13)-c1cc3c(c(=O)n1C2)COC(=O)[C@]3(O)CC [SN-38] (first compound max 1 µM, 7x7, partner max 0.3 µM) | 0.0354 | -0.012 | -0.011 | -0.111 | 0.0234 | 0.0088 | -0.0262 | 0.0039 | -0.0714 | -0.0423 | 0.0045 | 0.0549 | -0.0952 | -0.0165 | 0.0232 | -0.116 | 0 | -0.0147 | -0.0446 |
| COc1cccc2c1C(=O)c1c(O)c3c(c(O)c1C2=O)C[C@@](O)(C(=O)CO)C[C@@H]3O[C@H]1C[C@H](N)[C@H](O)[C@H](C)O1 [Doxorubicin] + Cc1cc2ncnn2cc1Nc1ncc2c(n1)n(C1CCOCC1)c(=O)n2C [AZD7648] (first compound max 1 µM, 7x7, partner max 10 µM) | -0.0037 | 0.126 | 0.005 | 0.0178 | 0.0432 | 0.0664 | 0.0877 | 0.117 | -0.03 | 0.0052 | 0.101 | 0.005 | 0.0226 | 0.0114 | 0.0438 | 0.0694 | 0.0498 | 0.119 | 0.0833 |
| COc1cccc(OCCCN)c1-c1cc(Nc2cnc(C#N)cn2)n[nH]1 [Prexasertib] + CN(C)CCCOc1ccc(-c2ccc3ncc4c(c3c2)n(C2CCOCC2)c(=O)n4C)cn1 [AZD0156] (first compound max 1 µM, 7x7, partner max 1 µM) | -0.0561 | -0.0145 | 0.0409 | 0.0127 | -0.0509 | -0.0026 | -0.0002 | -0.0038 | -0.0684 | -0.0405 | -0.0204 | -0.0232 | -0.0813 | -0.0272 | -0.0255 | -0.0432 | -0.0373 | 0.0171 | -0.0303 |
| CCc1c2c(nc3ccc(O)cc13)-c1cc3c(c(=O)n1C2)COC(=O)[C@]3(O)CC [SN-38] + O=C(c1cc(Cc2n[nH]c(=O)c3ccccc23)ccc1F)N1CCN(C(=O)C2CC2)CC1 [Olaparib] (first compound max 0.3 µM, 7x7, partner max 10 µM) | -0.0076 | 0.0642 |  | 0.005 | 0.0456 | 0.096 | 0.0568 | 0.0716 | 0.0601 | 0.0282 | 0.036 | -0.0372 | 0.0384 | 0.0383 | 0.0915 | 0.0691 | 0.0458 | 0.0271 | 0.0404 |
| CC1(C)CCC(CN2CCN(c3ccc(C(=O)NS(=O)(=O)c4ccc(NCC5CCOCC5)c([N+](=O)[O-])c4)c(Oc4cnc5[nH]ccc5c4)c3)CC2)=C(c2ccc(Cl)cc2)C1 [Venetoclax] + C[C@@H]1COCCN1C2=NC(=NC(=C2)C3(CC3)[S@](=N)(=O)C)C4=C5C=CNC5=NC=C4 [AZD6738] (first compound max 1 µM, 7x7, partner max 10 µM) | 0.0739 | -0.0224 | -0.0587 | -0.0242 | -0.0492 | -0.0222 | 0.106 | -0.0095 | -0.0351 | -0.0097 | -0.0672 | -0.0363 | -0.031 | -0.0549 | 0.0165 | -0.0601 | -0.006 | 0.0289 | -0.0176 |
| CC1(C)CCC(CN2CCN(c3ccc(C(=O)NS(=O)(=O)c4ccc(NCC5CCOCC5)c([N+](=O)[O-])c4)c(Oc4cnc5[nH]ccc5c4)c3)CC2)=C(c2ccc(Cl)cc2)C1 [Venetoclax] + Cn1cnc2c(F)c(Nc3ccc(Br)cc3Cl)c(C(=O)NOCCO)cc21 [Selumetinib] (first compound max 1 µM, 7x7, partner max 3 µM) | -0.0691 | -0.0483 | -0.0392 | -0.0203 | -0.0284 | 0.0083 | 0.0009 | -0.0135 | -0.069 | -0.0121 | 0.0564 | -0.0601 | -0.0722 | -0.0192 | -0.01 | -0.0406 | -0.0038 | 0.113 | -0.006 |
| CC1(C)CCC(CN2CCN(c3ccc(C(=O)NS(=O)(=O)c4ccc(NCC5CCOCC5)c([N+](=O)[O-])c4)c(Oc4cnc5[nH]ccc5c4)c3)CC2)=C(c2ccc(Cl)cc2)C1 [Venetoclax] + C=CCn1c(=O)c2cnc(Nc3ccc(N4CCN(C)CC4)cc3)nc2n1-c1cccc(C(C)(C)O)n1 [AZD1775] (first compound max 1 µM, partner max 1 µM) | 0.0018 | -0.0191 | -0.0744 | -0.053 | 0.0707 | -0.07 | 0.0564 | -0.0039 | 0.0233 | -0.0098 | 0.0612 | -0.0041 | 0.018 | -0.0144 | -0.0001 | 0.0003 | 0.0449 | -0.0079 | -0.0641 |
| CC1(C)CCC(CN2CCN(c3ccc(C(=O)NS(=O)(=O)c4ccc(NCC5CCOCC5)c([N+](=O)[O-])c4)c(Oc4cnc5[nH]ccc5c4)c3)CC2)=C(c2ccc(Cl)cc2)C1 [Venetoclax] + COc1cc(Nc2ncc3c(n2)-c2ccc(Cl)cc2C(c2c(F)cccc2OC)=NC3)ccc1C(=O)O [Alisertib] (first compound max 1 µM, 7x7, partner max 10 µM) | 0.294 | 0.174 | -0.0852 | 0.0194 | -0.0415 | 0.0947 | 0.121 | -0.0116 | -0.0576 | -0.0117 | -0.0265 | -0.0456 | -0.0524 | 0.0221 | -0.0226 | -0.0167 | 0.0128 | 0.036 | -0.0024 |
| CC1(C)CCC(CN2CCN(c3ccc(C(=O)NS(=O)(=O)c4ccc(NCC5CCOCC5)c([N+](=O)[O-])c4)c(Oc4cnc5[nH]ccc5c4)c3)CC2)=C(c2ccc(Cl)cc2)C1 [Venetoclax] + CN(C)CCCOc1ccc(-c2ccc3ncc4c(c3c2)n(C2CCOCC2)c(=O)n4C)cn1 [AZD0156] (first compound max 1 µM, 7x7, partner max 1 µM) | -0.0023 | 0.0002 | -0.0566 | -0.0328 | -0.0225 | -0.0469 | 0.0439 | -0.0007 | -0.0375 | -0.0261 | 0.0408 | -0.028 | -0.086 | -0.033 | 0.0092 | -0.0172 | 0.0221 | -0.0498 | -0.0047 |
| COc1cccc(OCCCN)c1-c1cc(Nc2cnc(C#N)cn2)n[nH]1 [Prexasertib] + Cc1cc2ncnn2cc1Nc1ncc2c(n1)n(C1CCOCC1)c(=O)n2C [AZD7648] (first compound max 1 µM, 7x7, partner max 10 µM) | -0.0287 | -0.0217 | -0.0594 | -0.0157 | -0.0143 | -0.0015 | -0.0257 | 0.0099 | -0.0446 | -0.0381 | -0.0264 | -0.0434 | -0.0355 | 0.0061 | 0.0041 | -0.0033 | -0.0159 | 0.0298 | -0.0334 |
| COc1cccc(OCCCN)c1-c1cc(Nc2cnc(C#N)cn2)n[nH]1 [Prexasertib] + O=C(c1cc(Cc2n[nH]c(=O)c3ccccc23)ccc1F)N1CCN(C(=O)C2CC2)CC1 [Olaparib] (first compound max 1 µM, 7x7, partner max 10 µM) | -0.0514 | -0.0144 | -0.103 | -0.0407 | -0.128 | -0.0412 | 0.0006 | -0.0468 | -0.1 | -0.0144 | -0.0035 | 0.0083 | -0.103 | -0.0925 | -0.0511 | -0.031 | -0.0243 | -0.0105 | -0.0434 |
| COc1cccc(OCCCN)c1-c1cc(Nc2cnc(C#N)cn2)n[nH]1 [Prexasertib] + C[C@@H]1COCCN1C2=NC(=NC(=C2)C3(CC3)[S@](=N)(=O)C)C4=C5C=CNC5=NC=C4 [AZD6738] (first compound max 1 µM, 7x7, partner max 10 µM) | -0.0568 | -0.0158 | -0.0129 | -0.0836 | -0.0036 | -0.011 | -0.022 | -0.0361 | -0.02 | -0.0844 | 0.0317 | 0.0035 | -0.0406 | -0.0334 | 0.0255 | -0.0399 | -0.0134 | -0.0539 | -0.044 |
| COc1cccc(OCCCN)c1-c1cc(Nc2cnc(C#N)cn2)n[nH]1 [Prexasertib] + C=CCn1c(=O)c2cnc(Nc3ccc(N4CCN(C)CC4)cc3)nc2n1-c1cccc(C(C)(C)O)n1 [AZD1775] (first compound max 1 µM, partner max 1 µM) | 0.031 | 0.0461 | -0.0247 | 0.0059 | 0.0702 | 0.0218 | 0.0697 | 0.0581 | -0.0075 | 0.0361 | 0.0656 | 0.081 | -0.0341 | 0.0352 | 0.0017 | 0.0615 | 0.0816 | 0.0438 | 0.0228 |

Source: the supplement of paper PMC11061612
